Among the data in patent US9045445B2, “Glycine transporter-1 inhibitors, methods of making them, and uses thereof” (Albany Molecular Research, Inc., priority 2010, dated 2015) are IC50 values, retold here.

Where a name gives a salt, the structure may show the parent alone.

Assay [1] has as its target T1, glycine transporter-2 (GlyT-2) (Homo sapiens, UniProt Q9Y345).
T1 construct: expressed in transfected cells
T1 sequence (Q9Y345 1-797): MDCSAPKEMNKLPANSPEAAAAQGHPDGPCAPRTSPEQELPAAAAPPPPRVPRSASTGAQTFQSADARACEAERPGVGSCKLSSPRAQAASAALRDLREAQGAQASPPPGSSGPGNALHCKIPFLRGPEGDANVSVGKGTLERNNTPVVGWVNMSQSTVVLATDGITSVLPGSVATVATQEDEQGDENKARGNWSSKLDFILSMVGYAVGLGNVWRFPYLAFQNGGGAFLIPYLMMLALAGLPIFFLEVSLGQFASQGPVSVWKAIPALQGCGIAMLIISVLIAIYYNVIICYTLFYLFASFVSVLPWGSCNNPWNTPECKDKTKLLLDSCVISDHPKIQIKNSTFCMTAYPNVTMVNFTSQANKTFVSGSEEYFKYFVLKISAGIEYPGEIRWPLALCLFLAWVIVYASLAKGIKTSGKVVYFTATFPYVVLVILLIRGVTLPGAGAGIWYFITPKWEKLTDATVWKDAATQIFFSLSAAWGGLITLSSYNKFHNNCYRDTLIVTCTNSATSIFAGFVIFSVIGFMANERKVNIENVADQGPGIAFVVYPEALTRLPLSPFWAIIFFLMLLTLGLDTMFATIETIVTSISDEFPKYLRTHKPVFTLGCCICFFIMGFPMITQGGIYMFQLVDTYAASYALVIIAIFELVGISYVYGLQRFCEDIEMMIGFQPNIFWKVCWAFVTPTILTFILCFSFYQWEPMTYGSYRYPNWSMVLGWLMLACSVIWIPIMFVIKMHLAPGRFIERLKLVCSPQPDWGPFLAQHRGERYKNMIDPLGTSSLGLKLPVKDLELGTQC
Kind of assay: [14C]glycine uptake assay in HEK-GlyT-2 transfected cells. Format: cell-based. To be noted: HEK-GlyT-2 cells.

In assay [2] the target is T2, glycine transporter-1 (GlyT-1) (Homo sapiens, UniProt P48067).
T2 construct: JAR cells (ATCC#HTB-144), which endogenously express GlyT-1; host or cells: JAR human choriocarcinoma cells
T2 sequence (P48067 1-706): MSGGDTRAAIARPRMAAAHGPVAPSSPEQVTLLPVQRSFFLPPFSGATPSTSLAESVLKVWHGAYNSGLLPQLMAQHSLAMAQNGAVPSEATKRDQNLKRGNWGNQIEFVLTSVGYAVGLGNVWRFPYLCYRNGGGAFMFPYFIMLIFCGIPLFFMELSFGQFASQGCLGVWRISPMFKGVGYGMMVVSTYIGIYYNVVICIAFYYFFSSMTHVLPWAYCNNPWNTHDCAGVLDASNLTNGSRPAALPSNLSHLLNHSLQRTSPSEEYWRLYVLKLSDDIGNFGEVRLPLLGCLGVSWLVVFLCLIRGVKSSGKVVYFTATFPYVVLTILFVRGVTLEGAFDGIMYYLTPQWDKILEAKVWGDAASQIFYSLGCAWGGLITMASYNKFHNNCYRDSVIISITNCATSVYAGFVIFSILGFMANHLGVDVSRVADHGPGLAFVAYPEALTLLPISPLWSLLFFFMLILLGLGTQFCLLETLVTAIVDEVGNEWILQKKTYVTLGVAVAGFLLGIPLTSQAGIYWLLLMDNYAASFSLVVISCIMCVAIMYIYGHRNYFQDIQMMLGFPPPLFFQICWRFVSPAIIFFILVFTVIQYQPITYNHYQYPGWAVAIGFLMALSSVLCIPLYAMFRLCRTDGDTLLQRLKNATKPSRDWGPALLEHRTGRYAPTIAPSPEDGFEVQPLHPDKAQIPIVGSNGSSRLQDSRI
In words: [14C]glycine uptake assay in JAR cells endogenously expressing GlyT-1 (scintillation proximity). The class given is cell-based. The conditions noted are these: JAR cells, [14C]glycine 5 μM, 3 hour incubation; read-out: GlyT-1 IC50. An outline of the steps:
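Human choriocarcinoma JAR cells (endogenous GlyT-1) attached overnight, then pre-incubated 10 min at room temperature with compound in pH 7.4 Hepes uptake buffer containing 5 mM alanine and 0.75% DMSO. Uptake of 5 μM [14C]glycine over 3 h at 37 °C read by scintillation proximity; IC50 from four-parameter fit of nine-point curves.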
(In a scintillation proximity assay essentially only radioactivity close to the scintillant gives light.)

`Nc1cccc(Cl)c1C(=O)NCC1(N2CCN(S(=O)(=O)c3ccccc3)CC2)CCCCC1` [compound 89, 2-Amino-6-chloro-N-((1-(4-(phenylsulfonyl)piperazin-1-yl)cyclohexyl)methyl) benzamide Hydrochloride]: the IC50 is above 75000 nM in assay [1] and 2290 nM in assay [2].
On the same counts, the results for `CCCS(=O)(=O)N1CCN(C2(CNC(=O)c3c(OC)cc(F)cc3SC)CCOCC2)CC1` [compound 122, 4-Fluoro-2-methoxy-6-(methylthio)-N-((4-(4-(propylsulfonyl)piperazin-1-yl)tetrahydro-2H-pyran-4-yl)methyl)benzamide Hydrochloride] are above 75000 nM and 95 nM.
Take `COc1cc(F)cc(SC)c1C(=O)NCC1(N2CCN(S(=O)(=O)c3cn(C)nn3)CC2)CCCC1` [compound 113, 4-Fluoro-2-methoxy-N-((1-(4-(1-methyl-1H-1,2,3-triazol-4-ylsulfonyl)piperazin-1-yl)cyclopentyl)methyl)-6-(methylthio)benzamide Hydrochloride]: the IC50 in assay [1] was above 75000 nM; in assay [2], 3 nM.
In the same order, the values of `CCCS(=O)(=O)N1CCN(C2(CNC(=O)c3c(F)cccc3F)CCCCCC2)CC1` [compound 66, 2,6-Difluoro-N-((1-(4-(propylsulfonyl)piperazin-1-yl)cycloheptyl)methyl) benzamide Hydrochloride] are above 45000 nM and 29 nM.
In the same order, the values of `Cn1cc(S(=O)(=O)N2CCN(C3(CNC(=O)c4ccc(F)cc4C(F)(F)F)CCC(F)(F)CC3)CC2)nn1` [compound 233, N-((4,4-Difluoro-1-(4-(1-methyl-1H-1,2,3-triazol-4-ylsulfonyl)piperazin-1-yl)cyclohexyl)methyl)-4-fluoro-2-(trifluoromethyl)benzamide Hydrochloride] are above 75000 nM and 1 nM.
On the same counts, the results for `CC(NC(=O)c1ccc(F)cc1Cl)C1(N2CCN(S(=O)(=O)c3cn(C)nn3)CC2)CCC(F)(F)CC1` (stereo not shown) [compound 220, 2-Chloro-N-(1-(4,4-difluoro-1-(4-(1-methyl-1H-1,2,3-triazol-4-ylsulfonyl)piperazin-1-yl)cyclohexyl)ethyl)-4-fluorobenzamide Hydrochloride] are above 75000 nM and 83 nM.
As to `CCCS(=O)(=O)N1CCN(C2(CNC(=O)c3c(N)cccc3Cl)CCCC2)CC1` [compound 77, 2-Amino-6-chloro-N-((1-(4-(propylsulfonyl)piperazin-1-yl)cyclopentyl)methyl) benzamide Hydrochloride], the IC50 in assay [1] is above 30000 nM; in assay [2], 183 nM.
On the same counts, the results for `CCCS(=O)(=O)N1CCN(C2(CNC(=O)c3c(OC)cc(C(F)(F)F)cc3C(F)(F)F)CCCCCC2)CC1` [compound 70, 2-Methoxy-N-((1-(4-(propylsulfonyl)piperazin-1-yl)cycloheptyl)methyl)-4,6-bis(trifluoromethyl) benzamide Hydrochloride] are above 75000 nM and 9 nM.
On the same counts, the results for `CC1CN(C2(CNC(=O)c3c(F)cccc3F)CCCCC2)CCN1S(=O)(=O)CC1CC1` (stereo not shown) [compound 117, N-((1-(4-(Cyclopropylmethyl-sulfonyl)-3-methylpiperazin-1-yl)cyclohexyl)methyl)-2,6-difluorobenzamide Hydrochloride] are above 75000 nM and 1070 nM.
On to `CCS(=O)(=O)N1CCN(C2(CNC(=O)c3c(Cl)cc(C(F)(F)F)cc3Cl)CCC(F)(F)CC2)CC1` [compound 207, 2,6-Dichloro-N-((1-(4-(ethylsulfonyl)piperazin-1-yl)-4,4-difluoro-cyclohexyl)methyl)-4-(trifluoromethyl) benzamide Hydrochloride], for which the IC50 is above 75000 nM in assay [1] and 64 nM in assay [2].
In the same order, the values of `CCCS(=O)(=O)N1CCN(C2(CNC(=O)c3c(N)cccc3Cl)Cc3ccccc3C2)CC1` [compound 115, 2-Amino-6-chloro-N-((2-(4-(propylsulfonyl)piperazin-1-yl)-2,3-dihydro-1H-inden-2-yl)methyl)benzamide Hydrochloride] are above 75000 nM and 661 nM.
On the same counts, the results for `Cn1cc(S(=O)(=O)N2CCN(C3(CNC(=O)c4cc(F)c(F)cc4Cl)CCC(F)(F)CC3)CC2)nn1` [compound 235, 2-Chloro-N-((4,4-difluoro-1-(4-(1-methyl-1H-1,2,3-triazol-4-ylsulfonyl)piperazin-1-yl)cyclohexyl)methyl)-4,5-difluorobenzamide Hydrochloride] are above 75000 nM and 3 nM.
In the same order, the values of `COc1cc(F)cc(C)c1C(=O)NCC1(N2CCN(S(=O)(=O)CC3CC3)CC2)CCCCC1` [compound 79, N-((1-(4-(Cyclopropylmethyl-sulfonyl)piperazin-1-yl)cyclohexyl)methyl)-4-fluoro-2-methoxy-6-methylbenzamide Hydrochloride] are above 75000 nM and 29 nM.
`Cn1cnc(S(=O)(=O)N2CCN(C3(CNC(=O)c4ccccc4Cl)CCC(F)(F)CC3)CC2)c1` [compound 160, 2-Chloro-N-((4,4-difluoro-1-(4-(1-methyl-1H-imidazol-4-ylsulfonyl)piperazin-1-yl)cyclohexyl)methyl) benzamide Hydrochloride]: the half-maximal inhibitory concentration (IC50) in assay [1] is above 75000 nM; in assay [2], 9 nM.
Take `CCCS(=O)(=O)N1CCN(C2(CNC(=O)c3c(OC)cc(F)cc3SC)CCC(F)(F)CC2)CC1` [compound 138, N-((4,4-Difluoro-1-(4-(propylsulfonyl)piperazin-1-yl)cyclohexyl)methyl)-4-fluoro-2-methoxy-6-(methylthio)benzamide Hydrochloride]: the IC50 was above 75000 nM in assay [1] and 25 nM in assay [2].
On the same counts, the results for `CCCS(=O)(=O)N1CCN(C2(CNC(=O)c3c(F)cc(F)cc3F)CCCCC2)CC1` [compound 48, 2,4,6-Trifluoro-N-((1-(4-(propylsulfonyl)piperazin-1-yl)cyclohexyl)methyl) benzamide Hydrochloride] are above 75000 nM and 16 nM.
In the same order, the values of `CCCS(=O)(=O)N1CCN(C2(CNC(=O)c3c(F)cccc3OC)CCCCCC2)CC1` [compound 55, 2-Fluoro-6-methoxy-N-((1-(4-(propylsulfonyl)piperazin-1-yl)cycloheptyl)methyl) benzamide Hydrochloride] are above 75000 nM and 14 nM.
In the same order, the values of `Cc1cccc(F)c1C(=O)NCC1(N2CCN(S(=O)(=O)CC3CC3)CC2)CCCCC1` [compound 80, N-((1-(4-(Cyclopropylmethyl-sulfonyl)piperazin-1-yl)cyclohexyl)methyl)-2-fluoro-6-methylbenzamide Hydrochloride] are above 75000 nM and 29 nM.
As for `CCCS(=O)(=O)N1CCN(C2(CNC(=O)c3ccc(C)cc3)CCCCC2)CC1` [compound 25, 4-Methyl-N-((1-(4-(propylsulfonyl)piperazin-1-yl)cyclohexyl)methyl) benzamide Hydrochloride], the IC50 was above 75000 nM in assay [1] and 767 nM in assay [2].
In the same order, the values of `Cn1cc(S(=O)(=O)N2CCN(C3(CNC(=O)c4c(Cl)cccc4Cl)CCCC3)CC2)nn1` [compound 109, 2,6-Dichloro-N-((1-(4-(1-methyl-1H-l,2,3-triazol-4-ylsulfonyl)piperazin-1-yl)cyclopentyl)methyl) benzamide Hydrochloride] are above 75000 nM and 31 nM.

Broadly, the IC50 is the concentration that inhibits the measured activity by half.
